{"source": "patent US9635859B2", "about": "“Pesticidal compositions and processes related thereto” (Dow AgroSciences LLC, priority 2012, dated 2017)", "format_in_all_cases": "in vivo", "key": {"[1]": {"test_system": "Corn Earworm (Helicoverpa zea)", "experiment": "Bioassays on CEW, 128-well diet tray assay", "conditions": "percent mortality, second instar larvae, 50 μg/cm^2 on artificial diet, five to seven days, 25° C.; Table 3", "description": "(§1) Certain molecules disclosed in this document were tested against BAW and CEW and CL using procedures described in the following examples. In the reporting of the results, the “BAW & CEW & CL Rating Table” was used (See Table Section).\nBioassays on CEW (Helicoverpa zea)\nBioassays on CEW were conducted using a 128-well diet tray assay. one to five second instar CEW larvae were placed in each well (3 mL) of the diet tray that had been previously filled with 1 mL of artificial diet to which 50 μg/cm^2 of the test compound (dissolved in 50 μL of 90:10 acetone-water mixture) had been applied (to each of eight wells) and then allowed to dry. Trays were covered with a clear self-adhesive cover, and held at 25° C., 14:10 light-dark for five to seven days. Percent mortality was recorded for the larvae in each well; activity in the eight wells was then averaged. The results are indicated in the table entitled “Table 3: Assay Results” (See Table Section)."}, "[2]": {"test_system": "Cabbage Looper (Trichoplusia ni)", "experiment": "Bioassays on CL, 128-well diet tray assay", "conditions": "percent mortality, second instar larvae, 50 μg/cm^2 on artificial diet, five to seven days, 25° C.; Table 3A", "description": "as §1\nBioassays on CL (Trichoplusia ni)\nBioassays on CL were conducted using a 128-well diet tray assay. One to five second instar CL larvae were placed in each well (3 mL) of the diet tray that had been previously filled with 1 mL of artificial diet to which 50 μg/cm^2 of the test compound (dissolved in 50 μL of 90:10 acetone-water mixture) had been applied (to each of eight wells) and then allowed to dry. Trays were covered with a clear self-adhesive cover, and held at 25° C., 14:10 light-dark for five to seven days. Percent mortality was recorded for the larvae in each well; activity in the eight wells was then averaged. The results are indicated in the table entitled “Table 3A: Assay Results” (See Table Section)."}, "[3]": {"test_system": "Beet Armyworm (Spodoptera exigua)", "experiment": "Bioassays on BAW, 128-well diet tray assay", "conditions": "percent mortality, second instar larvae, 50 μg/cm^2 on artificial diet, five to seven days, 25° C.; Table 3", "outline": "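Second-instar larvae (one to five per well) were placed on artificial diet surface-treated with 50 μg/cm^2 compound in acetone-water and held at 25 °C, 14:10 light-dark, for five to seven days. Percent mortality was averaged over eight wells.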"}}}
{"molecule": "O=C(NCc1ccc(/C=C/C(c2cc(Cl)c(Cl)c(Cl)c2)C(F)(F)F)cc1Cl)Oc1ccccc1Cl", "note": "(centres unmarked) [CC40]", "values": [{"measurement": "CEW Rating", "setting": "[1]", "result": "A (50-100)"}]}
{"molecule": "CCNC(=O)N(C)NC(=O)c1ccc(/C=C/C(c2cc(Cl)c(Cl)c(Cl)c2)C(F)(F)F)cc1Br", "note": "(centres unmarked) [Compound F1, (E)-2-(2-Bromo-4-(4,4,4-trifluoro-3-(3,4,5-trichlorophenyl)but-1-en-1-yl)benzoyl)-N-ethyl-1-methylhydrazinecarboxamide]", "values": [{"measurement": "CL Rating", "setting": "[2]", "result": "A (50-100)"}]}
{"molecule": "O=C(NCC(F)(F)F)NNC(=O)c1ccc(/C=C/C(c2cc(Cl)c(Cl)c(Cl)c2)C(F)(F)F)cc1Br", "note": "(centres unmarked) [Compound F7, (E)-2-(2-Bromo-4-(4,4,4-trifluoro-3-(3,4,5-trichlorophenyl)but-1-en-1-yl)benzoyl)-N-(2,2,2-trifluoroethyl)hydrazinecarboxamide]", "values": [{"measurement": "CL Rating", "setting": "[2]", "result": "A (50-100)"}]}
{"molecule": "C/C(=C\\C(c1cc(Cl)cc(Cl)c1)C(F)(F)F)c1ccc(-n2cncn2)cc1", "note": "(centres unmarked) [DC68, (E)-1-(4-(4-(3,5-Dichlorophenyl)-5,5,5-trifluoropent-2-en-2-yl)phenyl)-1H-1,2,4-triazole]", "values": [{"measurement": "BAW Rating", "setting": "[3]", "result": "A (50-100)"}]}
{"molecule": "COC(/C=C/c1ccc(-n2cncn2)cc1)(c1cc(Cl)cc(Cl)c1)C(F)(F)F", "note": "(centres unmarked) [DC70, (E)-1-(4-(3-(3,5-Dichlorophenyl)-4,4,4-trifluoro-3-methoxybut-1-en-1-yl)phenyl)-1H-1,2,4-triazole]", "values": [{"measurement": "BAW Rating", "setting": "[3]", "result": "A (50-100)"}]}
